Test systems include 786-0 renal; COLO 205 colon; MDA-MB-231 breast; NCI-H23 lung; NCI-H460 lung; SR leukemia; SK-OV-3 ovarian; M14 melanoma; A498 renal; HCT-15 colon.
Common to all, as to assay: growth of human tumour cells (NCI), 48 h

Among the data in PubChem BioAssay (NCI) are TGI and GI50 values, retold here.

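Following 48 hours of exposure in 96-well plates, responses at five concentrations were used to interpolate endpoints linearly. GI50 = concentration required for 50% inhibition of growth. TGI marks complete inhibition of growth.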 Where only a bound is given, the exact number is not on record here.

Regarding `CC(C)(C)C1CCC2c3c([nH]c4ccccc34)C3C(=O)N(c4ccc(C#N)cc4)C(=O)C3C2C1` (stereo not drawn), the TGI was 33700 nM in the test on 786-0 renal; greater than 100000 nM with COLO 205 colon; 35200 nM with MDA-MB-231 breast; 23600 nM in the test on NCI-H23 lung; 17100 nM in the test on NCI-H460 lung; greater than 100000 nM with SR leukemia. Moreover, the TGI with SK-OV-3 ovarian is greater than 100000 nM; in the test on M14 melanoma, 72600 nM; with A498 renal it was 35500 nM; in the test with HCT-15 colon, 26200 nM.
Regarding `COC(=O)c1cc(-c2ccccc2)[nH]c1N/N=C/c1c(Cl)cccc1Cl`, the GI50 with 786-0 renal was 410 nM; with COLO 205 colon, 301 nM; with MDA-MB-231 breast, 474 nM; with NCI-H23 lung, 438 nM; in the test with NCI-H460 lung, 319 nM; in the test on SR leukemia, 429 nM. Also, the GI50 in the test with SK-OV-3 ovarian is 390 nM; with M14 melanoma, 240 nM; in the test with A498 renal it was 198 nM; with HCT-15 colon, 308 nM. The TGI is 8390 nM in the test with 786-0 renal; greater than 40100 nM in the test with COLO 205 colon; 6850 nM in the test on MDA-MB-231 breast; 15400 nM in the test on NCI-H23 lung; 1250 nM in the test on NCI-H460 lung; greater than 100000 nM with SR leukemia. Moreover, the TGI is 3260 nM with SK-OV-3 ovarian, 1370 nM in the test on M14 melanoma, 704 nM in the test with A498 renal and greater than 36000 nM in the test on HCT-15 colon.
Turning to `C=CC(=O)N1CCC(c2ccc(C(N)=O)c(-c3ccc(Oc4ccccc4)cc3)n2)CC1`, the GI50 in the test with 786-0 renal is 31900 nM; in the test with COLO 205 colon, 42000 nM; in the test on MDA-MB-231 breast, 39000 nM; in the test with NCI-H23 lung, 34600 nM; with NCI-H460 lung, 46200 nM; in the test with SR leukemia, 28000 nM. Moreover, the GI50 is 23400 nM in the test on SK-OV-3 ovarian, 34300 nM with M14 melanoma, 12800 nM in the test on A498 renal and 25200 nM in the test with HCT-15 colon. For the same compound, the TGI in the test with 786-0 renal, in the test with COLO 205 colon, with MDA-MB-231 breast, with NCI-H23 lung, in the test on NCI-H460 lung and in the test on SR leukemia was greater than 100000 nM in each case. Further, the TGI in the test on SK-OV-3 ovarian is greater than 100000 nM; in the test with M14 melanoma, greater than 100000 nM; in the test on A498 renal it was 50100 nM; in the test with HCT-15 colon, greater than 100000 nM.
As to `O=S(=O)(NC1CCCCC1)c1ccc2c(c1)OCCOCCOCCOCCO2`, the TGI in the test on 786-0 renal, in the test with COLO 205 colon, with MDA-MB-231 breast, in the test with NCI-H23 lung, in the test on NCI-H460 lung and in the test with SR leukemia was greater than 100000 nM throughout. Besides, the TGI in the test on SK-OV-3 ovarian, in the test on M14 melanoma, in the test on A498 renal and in the test with HCT-15 colon was greater than 100000 nM in each case.
As to `O=[N+]([O-])c1cc[n+]([O-])c2ccccc12`, the GI50 was 217 nM in the test on 786-0 renal; 153 nM with COLO 205 colon; 282 nM in the test with MDA-MB-231 breast; 328 nM with NCI-H23 lung; 33 nM in the test with NCI-H460 lung; 24.5 nM in the test on SR leukemia. Besides, the GI50 in the test with SK-OV-3 ovarian is 1780 nM; in the test on M14 melanoma, 182 nM; with A498 renal, 176 nM; in the test with HCT-15 colon it was 279 nM. For the same compound, the TGI in the test on 786-0 renal is 753 nM; with COLO 205 colon it was 488 nM; in the test with MDA-MB-231 breast it was 1480 nM; in the test with NCI-H23 lung it was 1560 nM; in the test on NCI-H460 lung, 162 nM; in the test on SR leukemia, greater than 100000 nM. For the same compound, the TGI in the test on SK-OV-3 ovarian is 5550 nM; with M14 melanoma, 521 nM; with A498 renal, 471 nM; with HCT-15 colon it was 1420 nM.
`C=C1C(=O)O[C@H]2[C@H]1CC/C(COC(=O)CCCCCC(=O)OC/C1=C/CC[C@@]3(C)O[C@H]3[C@H]3OC(=O)C(=C)[C@@H]3CC1)=C\CC[C@@]1(C)O[C@@H]21`: the GI50 with 786-0 renal is 1090 nM; in the test on COLO 205 colon it was 1460 nM; in the test with MDA-MB-231 breast, 1680 nM; in the test with NCI-H23 lung, 2720 nM; in the test with NCI-H460 lung, 3210 nM; with SR leukemia, 336 nM. For the same compound, the GI50 was 12000 nM in the test on SK-OV-3 ovarian, 2680 nM with M14 melanoma, 11400 nM in the test with A498 renal and 1680 nM in the test on HCT-15 colon. The TGI in the test with 786-0 renal came to 2490 nM; in the test with COLO 205 colon, 3320 nM; in the test on MDA-MB-231 breast, 3620 nM; with NCI-H23 lung it was 9980 nM; in the test on NCI-H460 lung, 12200 nM; with SR leukemia, 5580 nM. The TGI with SK-OV-3 ovarian came out at 31000 nM; in the test on M14 melanoma, 8290 nM; in the test with A498 renal it was 27400 nM; with HCT-15 colon, 3810 nM.
With `O=C(CCN1CCCC1)Nc1ccc2c(NCc3ccccc3)c3ccccc3nc2c1`, the GI50 in the test on 786-0 renal is 684 nM; in the test on COLO 205 colon, 319 nM; in the test with MDA-MB-231 breast it was 377 nM; in the test with NCI-H23 lung it was 392 nM; with NCI-H460 lung, 313 nM; in the test with SR leukemia it was 261 nM. The GI50 with SK-OV-3 ovarian was 430 nM; in the test on M14 melanoma it was 657 nM; in the test on A498 renal it was 406 nM; in the test with HCT-15 colon it was 1860 nM. For the same compound, the TGI in the test on 786-0 renal came to 1990 nM; with COLO 205 colon, 1360 nM; with MDA-MB-231 breast, 1590 nM; with NCI-H23 lung, 1570 nM; with NCI-H460 lung it was 1070 nM; in the test with SR leukemia, 1580 nM. Further, the TGI in the test with SK-OV-3 ovarian came out at 2560 nM; with M14 melanoma it was 2030 nM; in the test on A498 renal it was 1900 nM; in the test with HCT-15 colon, 6970 nM.
In the case of `O=C(NCCN1CCOCC1)OCc1nc2nc(Cl)nc(N3CCOCC3)c2[nH]1`, the GI50 in the test on 786-0 renal is 23700 nM; in the test with COLO 205 colon, greater than 100000 nM; in the test on MDA-MB-231 breast, 2910 nM; in the test on NCI-H23 lung, 3560 nM; in the test with NCI-H460 lung it was 3290 nM; with SR leukemia, 728 nM. Besides, the GI50 in the test on SK-OV-3 ovarian is 5280 nM; with A498 renal, 1680 nM; in the test on HCT-15 colon, 3090 nM. Besides, the TGI in the test on 786-0 renal, in the test on COLO 205 colon, with MDA-MB-231 breast, in the test with NCI-H23 lung, with NCI-H460 lung and in the test on SR leukemia was greater than 100000 nM throughout. The TGI was greater than 100000 nM in the test on SK-OV-3 ovarian, 6660 nM in the test on A498 renal and greater than 100000 nM with HCT-15 colon.
